According to ChEMBL document CHEMBL6182883, “Discovery of a series of novel 3-sulfonamido benzoic acid derivatives as promising P2Y14R antagonists for acute lung injury” (Eur J Med Chem, 2025):
Active and inactive are the calls of the source. The rule behind the calls is not given here.

Assays:
[1] = target: T1, P2Y purinoceptor 14 (Homo sapiens) (UniProt Q15391); assay: Antagonist activity at human P2Y14R expressed in HEK293 cells assessed as inhibition of UDPG-induced Ca2+ level at 5 uM by Fluo-4 dye based fluorescence assay relative to control; format: functional, cell-based
T1 sequence (whole entry): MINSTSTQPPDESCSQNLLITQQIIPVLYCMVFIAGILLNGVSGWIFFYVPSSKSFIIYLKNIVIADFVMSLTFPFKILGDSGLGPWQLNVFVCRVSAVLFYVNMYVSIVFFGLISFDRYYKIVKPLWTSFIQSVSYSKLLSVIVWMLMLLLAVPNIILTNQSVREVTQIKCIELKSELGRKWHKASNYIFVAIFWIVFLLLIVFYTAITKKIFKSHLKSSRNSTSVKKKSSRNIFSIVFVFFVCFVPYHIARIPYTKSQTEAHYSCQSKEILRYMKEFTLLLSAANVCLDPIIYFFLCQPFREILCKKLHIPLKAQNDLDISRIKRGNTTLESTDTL

[2] = Aqueous solubility of the compound in pH 7.4 PBS buffer measured after 24 hrs by shake flask method; format: physicochemical
[3] = Aqueous solubility of the compound in pH 4 PBS buffer measured after 24 hrs by shake flask method; format: physicochemical
[4] = target: T2, P2Y purinoceptor 14 (Homo sapiens, UniProt Q15391); assay: Antagonist activity at human P2Y14R expressed in HEK293 cells assessed as inhibition of UDPG-induced Ca2+ level by Fluo-4 dye based fluorescence assay; format: functional, cell-based
T2 sequence (Q15391 whole entry): T1 sequence (whole entry)

[5] = tested on: Mus musculus; assay: (§1) Antiinflammatory activity in LPS-induced C57BL/6 mouse ALI model assessed as reduction in alveolar wall thickening at 2 mg/kg, po administered once daily via gavage for 7 days followed by endotoxin challenge at 1 hr post last dose and subsequent LPS stimulation and measured after 24 hrs by H and E staining based histopathological assay; format: functional, organism-based; details: time 8.0 day
[6] = tested on: Mus musculus; assay: as §1, with “neutrophil infiltration” for “alveolar wall thickening”; format: functional, organism-based; details: time 8.0 day
[7] = tested on: Mus musculus; assay: Antiinflammatory activity in LPS-induced C57BL/6 mouse ALI model assessed as reduction in IL-1beta expression in BALF at 2 mg/kg, po administered once daily via gavage for 7 days followed by endotoxin challenge at 1 hr post last dose and subsequent LPS stimulation and measured after 24 hrs by ELISA; format: functional, organism-based; details: time 8.0 day
[8] = tested on: Mus musculus; assay: Antiinflammatory activity in LPS-induced C57BL/6 mouse ALI model assessed as reduction in IL-6 expression in BALF at 2 mg/kg, po administered once daily via gavage for 7 days followed by endotoxin challenge at 1 hr post last dose and subsequent LPS stimulation and measured after 24 hrs by ELISA; format: functional, organism-based; details: time 8.0 day
[9] = tested on: Mus musculus; assay: Antiinflammatory activity in LPS-induced C57BL/6 mouse ALI model assessed as reduction in TNF-alpha expression in BALF at 2 mg/kg, po administered once daily via gavage for 7 days followed by endotoxin challenge at 1 hr post last dose and subsequent LPS stimulation and measured after 24 hrs by ELISA; format: functional, organism-based; details: time 8.0 day
[10] = tested on: Mus musculus; assay: Antiinflammatory activity in LPS-induced C57BL/6 mouse ALI model assessed as reduction in MPO level in BALF at 2 mg/kg, po administered once daily via gavage for 7 days followed by endotoxin challenge at 1 hr post last dose and subsequent LPS stimulation and measured after 24 hrs by ELISA; format: functional, organism-based; details: time 8.0 day

| SMILES | inhibition ([1]; filed as antagonist) [%] | further results |
| --- | --- | --- |
| O=C(O)c1cc(NS(=O)(=O)c2ccccc2)cc(-c2ccc(C3CCNCC3)cc2)c1 | 81.5 | – |
| O=C(O)c1cc(NS(=O)(=O)c2ccc(-c3ccc([N+](=O)[O-])cc3)cc2)cc(-c2ccc(C3CCNCC3)cc2)c1 | 65.1 | – |
| O=C(O)c1cc(-c2ccc(C3CCNCC3)cc2)c2ccc(-c3ccc(C(F)(F)F)cc3)cc2c1 [PPTN] | – | solubility thermodynamic at 24 h [2]: < 10 µg/mL; solubility thermodynamic at 24 h [3]: < 10 µg/mL |
| CC(C)(C)c1ccc(S(=O)(=O)Nc2cc(C(=O)O)cc(-c3ccc(C4CCNCC4)cc3)c2)cc1 | 49.6 | – |
| O=C(O)c1cc(NS(=O)(=O)c2ccc(-c3ccc(C(F)(F)F)cc3)cc2)cc(-c2ccc(C3CCNCC3)cc2)c1 | 76.5 | – |
| O=C(O)c1cc(NS(=O)(=O)c2ccc(Cl)cc2)cc(-c2ccc(C3CCNCC3)cc2)c1 | 80.9 | – |
| O=C(O)c1cc(NS(=O)(=O)c2cccc(F)c2)cc(-c2ccc(C3CCNCC3)cc2)c1 | 76.2 | – |
| COc1ccc(S(=O)(=O)Nc2cc(C(=O)O)cc(-c3ccc(C4CCNCC4)cc3)c2)cc1OC | – | inhibition [1]: 23.5% |
| O=C(O)c1cc(NS(=O)(=O)c2ccc(-c3ccccc3F)cc2)cc(-c2ccc(C3CCNCC3)cc2)c1 | 43.6 | – |
| O=C(O)c1cc(NS(=O)(=O)c2ccccc2F)cc(-c2ccc(C3CCNCC3)cc2)c1 | 82.3 | – |
| O=C(O)c1cc(NS(=O)(=O)Cc2ccccc2)cc(-c2ccc(C3CCNCC3)cc2)c1 | 81.6 | – |
| O=C(O)c1cc(NS(=O)(=O)Cc2ccc(Cl)cc2)cc(-c2ccc(C3CCNCC3)cc2)c1 | 80.1 | – |
| O=C(O)c1cc(NS(=O)(=O)CCc2ccccc2F)cc(-c2ccc(C3CCNCC3)cc2)c1 | 86.4 | IC50 [4]: 38.2 nM |
| C[C@@H]1C[C@H]2[C@@H]3CCC4=CC(=O)C=C[C@]4(C)[C@@]3(F)[C@@H](O)C[C@]2(C)[C@@]1(O)C(=O)CO | – | Activity [5]: Active; Activity [6]: Active; Activity [7]: Active; Activity [8]: Active; Activity [9]: Active; Activity [10]: Active |
| O=C(O)c1cc(NS(=O)(=O)Cc2ccc(C(F)(F)F)cc2)cc(-c2ccc(C3CCNCC3)cc2)c1 | 96.5 | IC50 [4]: 24.2 nM |
| O=C(O)c1cc(NS(=O)(=O)Cc2ccc(Br)cc2)cc(-c2ccc(C3CCNCC3)cc2)c1 | 83.1 | – |
| Cc1ccc(S(=O)(=O)Nc2cc(C(=O)O)cc(-c3ccc(C4CCNCC4)cc3)c2)cc1 | 50.6 | – |
| COc1cccc(S(=O)(=O)Nc2cc(C(=O)O)cc(-c3ccc(C4CCNCC4)cc3)c2)c1 | 47.8 | – |
| O=C(O)c1cc(NS(=O)(=O)Cc2ccc(F)cc2)cc(-c2ccc(C3CCNCC3)cc2)c1 | 82.8 | – |
